This is an account of results in ChEMBL document CHEMBL1151430, “Development of colistin-dependent Acinetobacter baumannii-Acinetobacter calcoaceticus complex” (2007).

≈ marks a conversion by molar mass, not a printed value. Calls of active or inactive are those of the source. The rule behind the calls is not given here.

In assay [1] the test system is Acinetobacter. Briefly: Antimicrobial activity against Acinetobacter baumannii-Acinetobacter calcoaceticus complex isolated from diabetic patient with calcaneal osteomyelitis by broth microdilution assay. Format: functional.
Assay [2] deals with Acinetobacter. Briefly: Antimicrobial activity against 8 ug/ml colistin-subcultured Acinetobacter baumannii-Acinetobacter calcoaceticus complex isolated from diabetic patient with calcaneal osteomyelitis and bacteremia by broth microdilution assay. Format: functional.

Usually MIC stands for the lowest concentration found to suppress growth. With `NCC[C@H](O)C(=O)N[C@@H]1C[C@H](N)[C@@H](O[C@H]2O[C@H](CN)[C@@H](O)[C@H](O)[C@H]2O)[C@H](O)[C@H]1O[C@H]1O[C@H](CO)[C@@H](O)[C@H](N)[C@H]1O` [AMIKACIN], the minimum inhibitory concentration (MIC) in assay [1] was 8 µg/mL (≈ 13.7 µM). Also, the MIC result in assay [2] was “inactive”.
The matching figures for `CC1(C)S[C@@H]2[C@H](NC(=O)[C@H](N)c3ccccc3)C(=O)N2[C@H]1C(=O)O` [AMPICILLIN]: above 8 µg/mL and “inactive”.
The matching figures for `CC[C@H]1OC(=O)[C@H](C)[C@@H](O[C@H]2C[C@@](C)(OC)[C@@H](O)[C@H](C)O2)[C@H](C)[C@@H](O[C@@H]2O[C@H](C)C[C@H](N(C)C)[C@H]2O)[C@](C)(O)C[C@@H](C)CN(C)[C@H](C)[C@@H](O)[C@]1(C)O` [AZITHROMYCIN]: 8 µg/mL (≈ 10.7 µM) and “inactive”.
The like results for `CC(C)(O/N=C(\C(=O)N[C@@H]1C(=O)N2C(C(=O)[O-])=C(C[n+]3ccccc3)CS[C@H]12)c1csc(N)n1)C(=O)O` [CEFTAZIDIME] were, in that order, above 64 µg/mL and “inactive”.
For `O=C(O)[C@H]1/C(=C/CO)O[C@@H]2CC(=O)N21` [CLAVULANIC ACID], the MIC in assay [1] is above 2 µg/mL. Also, in assay [2], the MIC result was “inactive”.
Turning to `C[C@H]1c2cccc(O)c2C(=O)C2=C(O)[C@]3(O)C(=O)C(C(N)=O)=C(O)[C@@H](N(C)C)[C@@H]3[C@@H](O)[C@@H]21.O` [DOXYCYCLINE], the MIC in assay [1] was 8 µg/mL; in assay [2] it was 1 µg/mL.
The matching figures for `C[C@@H](O)[C@H]1C(=O)N2C(C(=O)O)=C(SCCNC=N)C[C@H]12` [IMIPENEM ANHYDROUS]: 16 µg/mL (≈ 53.4 µM) and “inactive”.
For the compound `CN(C)c1ccc(O)c2c1C[C@H]1C[C@H]3[C@H](N(C)C)C(O)=C(C(N)=O)C(=O)[C@@]3(O)C(O)=C1C2=O` [MINOCYCLINE], the MIC in assay [1] was 1 µg/mL (≈ 2.19 µM). Further, the MIC entry in assay [2] was “inactive”.
The like results for `CC1(C)[C@H](C(=O)O)N2C(=O)C[C@H]2S1(=O)=O` [SULBACTAM] were, in that order, above 64 µg/mL and “inactive”.
`CC1(C)S[C@@H]2[C@H](NC(=O)[C@H](C(=O)O)c3ccsc3)C(=O)N2[C@H]1C(=O)O` [TICARCILLIN]: in assay [1], the MIC was above 256 µg/mL. Besides, the MIC result in assay [2] was “inactive”.
The matching figures for `CN(C)c1cc(NC(=O)CNC(C)(C)C)c(O)c2c1C[C@H]1C[C@H]3[C@H](N(C)C)C(O)=C(C(N)=O)C(=O)[C@@]3(O)C(O)=C1C2=O` [TIGECYCLINE]: 2 µg/mL (≈ 3.41 µM) and 0.12 µg/mL.
Consider COLISTIN, for which the MIC in assay [1] was 1 µg/mL; in assay [2], above 16 µg/mL.
The matching figures for GENTAMICIN: above 8 µg/mL and “inactive”.
The matching figures for POLYMYXIN B: 1 µg/mL and 4 µg/mL.
